Test results: PubChem BioAssay (NCI)
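How tested: cells in 96-well plates exposed to compound for 48 hours at five concentrations. TGI: total growth inhibition.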

Columns and labels:
Assay in all cases: inhibition of tumour cell growth, NCI panel, 48 h
MALME-3M melanoma = tested on: MALME-3M melanoma
MOLT-4 leukemia = tested on: MOLT-4 leukemia
HS 578T breast = tested on: HS 578T breast
HL-60(TB) leukemia = tested on: HL-60(TB) leukemia
IGROV1 ovarian = tested on: IGROV1 ovarian
786-0 renal = tested on: 786-0 renal
PC-3 prostate = tested on: PC-3 prostate
OVCAR-4 ovarian = tested on: OVCAR-4 ovarian
UACC-257 melanoma = tested on: UACC-257 melanoma
TK-10 renal = tested on: TK-10 renal
NCI-H23 lung = tested on: NCI-H23 lung
MDA-N = tested on: MDA-N
T-47D breast = tested on: T-47D breast
SF-268 CNS = tested on: SF-268 CNS
NCI-H226 lung = tested on: NCI-H226 lung
ACHN renal = tested on: ACHN renal
OVCAR-8 ovarian = tested on: OVCAR-8 ovarian
SK-MEL-28 melanoma = tested on: SK-MEL-28 melanoma
K-562 leukemia = tested on: K-562 leukemia
LOX IMVI melanoma = tested on: LOX IMVI melanoma
HCC-2998 colon = tested on: HCC-2998 colon
U251 CNS = tested on: U251 CNS
HOP-62 NSCLC = tested on: HOP-62 NSCLC
MCF7 breast = tested on: MCF7 breast
SF-295 CNS = tested on: SF-295 CNS
RXF 393 renal = tested on: RXF 393 renal
UO-31 renal = tested on: UO-31 renal
OVCAR-5 ovarian = tested on: OVCAR-5 ovarian
RPMI-8226 leukemia = tested on: RPMI-8226 leukemia
HOP-92 NSCLC = tested on: HOP-92 NSCLC
NCI/ADR-RES ovarian = tested on: NCI/ADR-RES ovarian
NCI-H460 lung = tested on: NCI-H460 lung
SK-MEL-5 melanoma = tested on: SK-MEL-5 melanoma
SN12C renal = tested on: SN12C renal
NCI-H522 lung = tested on: NCI-H522 lung
KM12 colon = tested on: KM12 colon
EKVX NSCLC = tested on: EKVX NSCLC
MDA-MB-231 breast = tested on: MDA-MB-231 breast
COLO 205 colon = tested on: COLO 205 colon
SK-OV-3 ovarian = tested on: SK-OV-3 ovarian
DU-145 prostate = tested on: DU-145 prostate
CCRF-CEM leukemia = tested on: CCRF-CEM leukemia
SNB-75 CNS = tested on: SNB-75 CNS
HCT-15 colon = tested on: HCT-15 colon
MDA-MB-435 = tested on: MDA-MB-435
HT29 colon = tested on: HT29 colon
CAKI-1 renal = tested on: CAKI-1 renal
SR leukemia = tested on: SR leukemia
A549 NSCLC = tested on: A549 NSCLC
OVCAR-3 ovarian = tested on: OVCAR-3 ovarian
UACC-62 melanoma = tested on: UACC-62 melanoma
M14 melanoma = tested on: M14 melanoma
SK-MEL-2 melanoma = tested on: SK-MEL-2 melanoma
BT-549 breast = tested on: BT-549 breast
SNB-19 CNS = tested on: SNB-19 CNS
HCT-116 colon = tested on: HCT-116 colon
A498 renal = tested on: A498 renal
SW-620 colon = tested on: SW-620 colon
SF-539 CNS = tested on: SF-539 CNS

COc1cc(C=C(c2ccc(N(C)C)cc2)c2ccc(N(C)C)cc2)c2ccccc2c1OC
TGI (MALME-3M melanoma): > 100 µM | TGI (MOLT-4 leukemia): > 100 µM | TGI (HS 578T breast): > 100 µM | TGI (HL-60(TB) leukemia): > 100 µM | TGI (IGROV1 ovarian): > 100 µM | TGI (786-0 renal): > 100 µM | TGI (PC-3 prostate): > 100 µM | TGI (OVCAR-4 ovarian): > 100 µM | TGI (UACC-257 melanoma): > 100 µM | TGI (TK-10 renal): > 100 µM | TGI (NCI-H23 lung): > 100 µM | TGI (MDA-N): 40.7 µM | TGI (T-47D breast): > 100 µM | TGI (SF-268 CNS): > 100 µM | TGI (NCI-H226 lung): > 100 µM | TGI (ACHN renal): > 100 µM | TGI (OVCAR-8 ovarian): > 100 µM | TGI (SK-MEL-28 melanoma): > 100 µM | TGI (K-562 leukemia): > 100 µM | TGI (LOX IMVI melanoma): > 100 µM | TGI (HCC-2998 colon): > 100 µM | TGI (U251 CNS): > 100 µM | TGI (HOP-62 NSCLC): > 100 µM | TGI (MCF7 breast): > 100 µM | TGI (SF-295 CNS): > 100 µM | TGI (RXF 393 renal): > 100 µM | TGI (UO-31 renal): > 100 µM | TGI (OVCAR-5 ovarian): > 100 µM | TGI (RPMI-8226 leukemia): > 100 µM | TGI (HOP-92 NSCLC): > 100 µM | TGI (NCI/ADR-RES ovarian): > 100 µM | TGI (NCI-H460 lung): > 100 µM | TGI (SK-MEL-5 melanoma): > 100 µM | TGI (SN12C renal): > 100 µM | TGI (NCI-H522 lung): > 100 µM | TGI (KM12 colon): > 100 µM | TGI (EKVX NSCLC): > 100 µM | TGI (MDA-MB-231 breast): > 100 µM | TGI (COLO 205 colon): > 100 µM | TGI (SK-OV-3 ovarian): > 100 µM | TGI (DU-145 prostate): > 100 µM | TGI (CCRF-CEM leukemia): > 100 µM | TGI (SNB-75 CNS): > 100 µM | TGI (HCT-15 colon): > 100 µM | TGI (MDA-MB-435): > 100 µM | TGI (HT29 colon): > 100 µM | TGI (CAKI-1 renal): > 100 µM | TGI (SR leukemia): > 100 µM | TGI (A549 NSCLC): > 100 µM | TGI (OVCAR-3 ovarian): 74 µM | TGI (UACC-62 melanoma): > 100 µM | TGI (M14 melanoma): > 100 µM | TGI (SK-MEL-2 melanoma): > 100 µM | TGI (BT-549 breast): > 100 µM | TGI (SNB-19 CNS): > 100 µM | TGI (HCT-116 colon): > 100 µM

COC(=O)[C@]12CC[C@H]3CN(C(=O)OCc4ccccc4)[C@H]([C@H]31)[C@H](c1ccccc1)N2
TGI (MOLT-4 leukemia): > 100 µM | TGI (HS 578T breast): > 100 µM | TGI (HL-60(TB) leukemia): > 100 µM | TGI (IGROV1 ovarian): > 100 µM | TGI (786-0 renal): > 100 µM | TGI (PC-3 prostate): > 100 µM | TGI (OVCAR-4 ovarian): > 100 µM | TGI (UACC-257 melanoma): > 100 µM | TGI (TK-10 renal): > 100 µM | TGI (NCI-H23 lung): > 100 µM | TGI (MDA-N): > 100 µM | TGI (T-47D breast): > 100 µM | TGI (SF-268 CNS): > 100 µM | TGI (A498 renal): > 100 µM | TGI (NCI-H226 lung): > 100 µM | TGI (ACHN renal): > 100 µM | TGI (OVCAR-8 ovarian): > 100 µM | TGI (SK-MEL-28 melanoma): > 100 µM | TGI (K-562 leukemia): > 100 µM | TGI (SW-620 colon): > 100 µM | TGI (LOX IMVI melanoma): > 100 µM | TGI (HCC-2998 colon): > 100 µM | TGI (U251 CNS): > 100 µM | TGI (HOP-62 NSCLC): > 100 µM | TGI (MCF7 breast): > 100 µM | TGI (SF-295 CNS): > 100 µM | TGI (RXF 393 renal): > 100 µM | TGI (UO-31 renal): > 100 µM | TGI (OVCAR-5 ovarian): > 100 µM | TGI (RPMI-8226 leukemia): > 100 µM | TGI (HOP-92 NSCLC): > 100 µM | TGI (NCI/ADR-RES ovarian): > 100 µM | TGI (NCI-H460 lung): > 100 µM | TGI (SK-MEL-5 melanoma): 58.3 µM | TGI (SN12C renal): > 100 µM | TGI (NCI-H522 lung): > 100 µM | TGI (KM12 colon): > 100 µM | TGI (EKVX NSCLC): > 100 µM | TGI (MDA-MB-231 breast): > 100 µM | TGI (COLO 205 colon): > 100 µM | TGI (SK-OV-3 ovarian): > 100 µM | TGI (DU-145 prostate): > 100 µM | TGI (CCRF-CEM leukemia): > 100 µM | TGI (SNB-75 CNS): > 100 µM | TGI (HCT-15 colon): > 100 µM | TGI (MDA-MB-435): > 100 µM | TGI (HT29 colon): > 100 µM | TGI (CAKI-1 renal): > 100 µM | TGI (SF-539 CNS): > 100 µM | TGI (SR leukemia): > 100 µM | TGI (A549 NSCLC): > 100 µM | TGI (OVCAR-3 ovarian): > 100 µM | TGI (UACC-62 melanoma): > 100 µM | TGI (M14 melanoma): > 100 µM | TGI (SK-MEL-2 melanoma): > 100 µM | TGI (BT-549 breast): > 100 µM | TGI (SNB-19 CNS): > 100 µM | TGI (HCT-116 colon): > 100 µM

Nc1nccc2c1ncn2[C@H]1C[C@H](O)[C@@H](CO)O1
TGI (MALME-3M melanoma): > 100 µM | TGI (MOLT-4 leukemia): > 100 µM | TGI (HS 578T breast): > 100 µM | TGI (IGROV1 ovarian): > 100 µM | TGI (PC-3 prostate): > 100 µM | TGI (OVCAR-4 ovarian): > 100 µM | TGI (UACC-257 melanoma): > 100 µM | TGI (TK-10 renal): > 100 µM | TGI (NCI-H23 lung): > 100 µM | TGI (MDA-N): > 100 µM | TGI (T-47D breast): > 100 µM | TGI (A498 renal): > 100 µM | TGI (NCI-H226 lung): > 100 µM | TGI (OVCAR-8 ovarian): > 100 µM | TGI (SK-MEL-28 melanoma): > 100 µM | TGI (K-562 leukemia): > 100 µM | TGI (SW-620 colon): > 100 µM | TGI (LOX IMVI melanoma): > 100 µM | TGI (HCC-2998 colon): > 100 µM | TGI (U251 CNS): > 100 µM | TGI (HOP-62 NSCLC): > 100 µM | TGI (MCF7 breast): > 100 µM | TGI (SF-295 CNS): > 100 µM | TGI (RXF 393 renal): > 100 µM | TGI (UO-31 renal): > 100 µM | TGI (OVCAR-5 ovarian): > 100 µM | TGI (RPMI-8226 leukemia): > 100 µM | TGI (HOP-92 NSCLC): > 100 µM | TGI (NCI/ADR-RES ovarian): > 100 µM | TGI (NCI-H460 lung): > 100 µM | TGI (SK-MEL-5 melanoma): > 100 µM | TGI (SN12C renal): > 100 µM | TGI (KM12 colon): > 100 µM | TGI (MDA-MB-231 breast): > 100 µM | TGI (COLO 205 colon): > 100 µM | TGI (SK-OV-3 ovarian): > 100 µM | TGI (DU-145 prostate): > 100 µM | TGI (CCRF-CEM leukemia): > 100 µM | TGI (SNB-75 CNS): > 100 µM | TGI (HCT-15 colon): > 100 µM | TGI (MDA-MB-435): > 100 µM | TGI (HT29 colon): > 100 µM | TGI (CAKI-1 renal): > 100 µM | TGI (SR leukemia): > 100 µM | TGI (OVCAR-3 ovarian): > 100 µM | TGI (UACC-62 melanoma): > 100 µM | TGI (M14 melanoma): > 100 µM | TGI (SK-MEL-2 melanoma): > 100 µM | TGI (BT-549 breast): > 100 µM | TGI (SNB-19 CNS): > 100 µM | TGI (HCT-116 colon): > 100 µM
